Assay results: patent US20110165173A1, “THERAPEUTIC AGENT AND DETECTION REAGENT FOR ARTERIOSCLEROTIC DISEASE WHICH TARGETS FOR SALUSIN” (PROTEINEXPRESS CO., LTD., priority 2007, published 2011)

How the values were obtained:
apoE-deficient mice = test: Arteriosclerotic lesions of aorta in apoE-deficient mice under continuous subcutaneous administration (oil red O staining); assay type: in vivo; conditions: 0.6 nmol/kg/h continuous subcutaneous
Protocol: Effects of continuous administration of salusin-α and salusin-β on arteriosclerosis were examined with the use of apoE-deficient mice as arteriosclerosis animal models. Herein, antiserum effects of salusin-α or salusin-β were also examined. In addition to examination of arteriosclerotic lesions, foaming of macrophages, which is important for formation of arteriosclerosis primary lesions, was focused on and cholesterol ester accumulation caused by oxidized LDL was assayed. Expression analysis was carried out for scavenger receptors (CD36 and SR-A) capable of recognizing oxidized LDL, an intracellular cholesterol esterification enzyme (acyl-CoA) (cholesterol acyltransferase 1 (ACAT1)), and ATP-binding cassette transporter A1 (ABCA1), ABCG1, and SR-BI, which are involved in the mechanism of extracellular transportation of excessive intracellular free cholesterol (cholesterol efflux).
The above animal experiments were carried out in accordance with the experimental practice guidelines established by Showa University (Japan). All the apoE-deficient mice used for this study were purchased from the Jackson Laboratory (Bar Harbor, Me., U.S.A.).
(§1) 13-week-old male apoE-deficient mice (72 mice) were divided into the following 6 groups: (i) physiological salt saline (control); (ii) salusin-α (0.6 nmol/kg/h); (iii) salusin-β (0.6 nmol/kg/h); (iv) salusin-α (0.6 nmol/kg/h)+anti-salusin-α serum (1.4 μg/kg/h); (v) salusin-β (0.6 nmol/kg/h)+anti-salusin-β serum (1.4 μg/kg/h); and (vi) anti-salusin-β serum (1.4 μg/kg/h). The mice were subjected to continuous subcutaneous administration with the use of an osmotic mini-pump for 4 to 8 weeks. The osmotic mini-pump and the solution contained therein were changed every week.
Mice ingesting a normal diet were subjected to experiments. The following parameters were assayed.
Each collected aorta was cut in the longitudinal direction, followed by oil red O staining for examination of the surface area of each atherosclerosis lesion with lipid pigmentation. Adobe Photoshop (Adobe System Inc., San Jose, Calif., U.S.A.) was used for identification of arteriosclerotic lesions, followed by analysis using NIH Scion Image (Scion Corp., Frederick, Md., U.S.A.) for quantification of the surface area of each lesion. In addition, cross-sections of the vicinity of the aorta (immediately below the aortic valve) were prepared, followed by oil red O staining for detailed analysis of arteriosclerotic lesions.

SR-A = SR-A expression by macrophages of treated apoE-deficient mice (Western blotting); assay type: in vivo; conditions: four weeks
Protocol: as §1
Macrophages were collected as in the experiment in (1), and the protein expression of the gene involved in foaming of macrophages (i.e., scavenger receptors CD36 and SR-A capable of recognizing oxidized LDL, intracellular cholesterol esterification enzyme ACAT1, and ABCA1, ABCG1, and SR-BI, which are involved in cholesterol efflux) was analyzed by Western blotting. For the internal standard of the macrophage function, β-actin expression was also examined. For quantification of the band concentration, Analyzer (ATTO Corporation, Tokyo) was used.

[1] = system: human monocyte-derived macrophages; test: Cholesterol esterification assay: foaming of human monocyte-derived macrophages caused by AcLDL; assay type: cell-based; conditions: 0.6 nM; 5 μg/mL AcLDL added on Day 7
Protocol: Cholesterol esterification assay was employed as a method for assaying foaming of macrophages [Goldstein J L et al., Methods Enzymol. 1983; 98: 241-260]. Macrophages cause acetylated LDL (AcLDL) to be incorporated into cells via scavenger receptors so as to result in lysosome degradation. Free cholesterol produced in a lysosome is transferred to ACAT and converted into cholesterol ester as a result of ACAT reaction. If [^3H]oleate is added to a medium, [^3H]oleate is incorporated into cells and converted into [^3H]oleoyl-CoA by acyl CoA synthase. ACAT produces cholesterol [^3H]oleate with the use of as substrates, AcLDL-derived free cholesterol and [^3H]oleoyl-CoA obtained as above. The radioactivity of cholesterol [^3H]oleate accumulated in cells can serve as a sensitive indicator for cholesterol ester accumulation (FIG. 7).
LDL (d=1.019-1.063) was purified from human blood plasma by sequential flotation ultracentrifugation [Schumaker VN et al., Methds Enzymol. 1986; 128: 155-170]. […] The volume of the obtained blood plasma fraction from which chylomicron and VLDL had been removed was measured with a volumetric flask. […]
Equivalent volumes of LDL (protein: 30 mg) (15 mL if 2.0 mg protein/mL) and saturated sodium acetate were mixed together. […] At this time, pH was monitored with a pH meter with the dropwise addition of 5 N NaOH thereto such that the pH could be maintained at more than 6.5. […]

Substance | arteriosclerotic lesion surface area (apoE-deficient mice; eight weeks) | plaque formation (apoE-deficient mice; eight weeks) | SR-A protein expression (SR-A; salusin-α 0.6 nmol/kg/h) | accumulation of cholesterol [3H]oleate caused by AcLDL, percent of loaded control cells [1] [%] | proximal aorta cross-sections, oil red O staining, compared with control group (apoE-deficient mice; four weeks) | mean arteriosclerotic lesion surface area of the aortic arch relative to control group (apoE-deficient mice; four weeks, P<0.005) | SR-A protein expression relative to control level (SR-A; 0.6 nmol/kg/h, range given jointly for CD36, SR-A, ACAT1, P<0.05) [times] | accumulation of cholesterol [3H]oleate caused by AcLDL relative to control cells [1] [times]
salusin-α: peptide (SEQ ID NO: 1) comprising 28 amino acid residues, generated by processing from preprosalusin (SGALPPAPAAPRPALRAQRAGPAGPGAK; listed as Homo sapiens) | reduced to less than half | obvious plaque formation was not observed | did not influence | 50 | – | – | – | –
salusin-β: peptide (SEQ ID NO: 3) comprising 20 amino acid residues, generated by processing from preprosalusin (AIFIFIRWLLKLGHHGRAPP; listed as Homo sapiens) [reference compound] | – | – | – | – | formation of atheroma stained red with oil red O and thickening of the blood vessel wall were observed | approximately 2.5 times | 1.5 to 2.8 | 1.6
